What was measured:
[1] = test system: surinam grass; assay: Test B pre/postemergence surinam grass; assay type: in vivo, Brachiaria decumbens
Procedure, shortened: (§1)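 Herbicidal effect was estimated by eye on a ten-point control scale after plants spent twelve to sixteen days in a greenhouse following soil or foliar treatment. Foliar sprays targeted plants at one to four leaves; all doses were formulated in a non-phytotoxic solvent with surfactant.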

[2] = test system: Italian ryegrass; assay: Test E Italian ryegrass; assay type: in vivo, Lolium multiflorum; conditions: Preemergence
[3] = test system: blackgrass; assay: Test E blackgrass; assay type: in vivo, Alopecurus myosuroides; conditions: Preemergence
[4] = test system: winter barley; assay: Test E winter barley; assay type: in vivo, Hordeum vulgare; conditions: Preemergence
[5] = test system: wild oat; assay: Test E wild oat; assay type: in vivo, Avena fatua; conditions: Preemergence
[6] = test system: winter wheat; assay: Test E winter wheat; assay type: in vivo, Triticum aestivum; conditions: Preemergence
[7] = test system: bamyardgrass; assay: Test B flood test barnyardgrass; assay type: in vivo, Echinochloa crus-galli
Procedure, shortened: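 Read-out is a visual response score from 0 (no effect) to 10 (complete control), assigned by comparison with untreated controls. Treatment was applied at the 2-leaf stage, and plants stayed in the greenhouse for twelve to sixteen days before scoring.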

[8] = test system: green foxtail; assay: Test E green foxtail; assay type: in vivo, Setaria viridis; conditions: Preemergence
[9] = test system: blackgrass; assay: Test B pre/postemergence blackgrass; assay type: in vivo, Alopecurus myosuroides
Procedure, shortened: as §1

[10] = test system: winter wheat; assay: Test E winter wheat; assay type: in vivo, Triticum aestivum; conditions: Postemergence
Procedure, shortened: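 Compound formulated with surfactant in a non-phytotoxic solvent (postemergence: young 1- to 4-leaf plants); held in greenhouse approx. 21–28 days; visual assessment against untreated plants.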

[11] = test system: sugar beet; assay: Test B pre/postemergence sugar beet; assay type: in vivo, Beta vulgaris
Procedure, shortened: as §1

[12] = Preemergence, Rate 62 g/ha, scale of 0 to 10 where 0 is no effect and 10 is complete control
[13] = Preemergence, Rate 500 g/ha, scale of 0 to 10 where 0 is no effect and 10 is complete control
[14] = Rate 62 g/ha, Postemergence, scale of 0 to 10 where 0 is no effect and 10 is complete control
[15] = Rate 125 g/ha, Postemergence, scale 0 (no effect) to 10 (complete control)
[16] = Rate 125 g/ha, Preemergence, scale of 0 to 10 where 0 is no effect and 10 is complete control
[17] = Rate 500 g/ha, Postemergence, scale 0 to 10, 0 no effect, 10 complete control
[18] = Rate 500 g/ha, 0 to 100 scale where 0 is no effect and 100 is complete control
[19] = Rate 1000 g/ha, 0 to 100 scale, 0 no effect, 100 complete control
[20] = Rate 62 g/ha, headed Pre-emergence (flood test species), scale 0 to 10 (0 no effect, 10 complete control)
[21] = Rate 125 g/ha, Pre-emergence, flood test species, scale 0 to 10 where 0 is no effect and 10 is complete control
[22] = Rate 250 g/ha, Pre-emergence, flood-test species, scale 0 to 10, 0 is no effect, 10 is complete control
[23] = Rate 500 g/ha, Pre-emergence, flood test species, scale 0 to 10 (0 no effect, 10 complete control)
[24] = Preemergence, Rate 250 g/ha, scale of 0 to 10 where 0 is no effect and 10 is complete control
[25] = Rate 125 g/ha, Postemergence, scale 0 to 10
[26] = Rate 31 g/ha, 0 to 100 scale, 0 no effect, 100 complete control
[27] = Rate 62 g/ha, 0 to 100 scale, 0 no effect, 100 complete control
[28] = Rate 125 g/ha, 0 to 100 scale (0 no effect, 100 complete control)

Cc1nc(C)c(Cn2c(=O)on(C(=O)N(c3ccc(F)cc3F)C(C)C)c2=O)s1 [Compound 233]
B. signalgrass plant response rating [1, 12]: 0
B. signalgrass plant response rating ([1]; Preemergence, Rate 250 g/ha, scale 0 to 10, 0 is no effect, 10 is complete control): 4
Plant response rating, B. signalgrass [1, 13]: 4
B. signalgrass plant response rating [1, 14]: 0
B. signalgrass plant response rating [1, 15]: 0
B. signalgrass plant response rating [1, 16]: 2
Plant response rating (0 to 10; 0 is no effect, 10 is complete control), B. signalgrass ([1]; Rate 250 g/ha, Postemergence): 0
B. signalgrass plant response rating [1, 17]: 1
I. Ryegrass plant response rating (0 to 100 scale) ([2]; Rate 250 g/ha): 40
Plant response rating, I. Ryegrass [2, 18]: 50
Plant response rating, I. Ryegrass [2, 19]: 60
Blackgrass plant response rating (0 to 100 scale) ([3]; Rate 250 g/ha): 50
Plant response rating, Blackgrass [3, 18]: 60
Plant response rating, Blackgrass [3, 19]: 85
Barley (winter) plant response rating (0 to 100 scale) ([4]; Rate 250 g/ha): 30
Plant response rating, Barley (winter) [4, 18]: 50
Plant response rating, Barley (winter) [4, 19]: 60
Wild oat plant response rating (0 to 100 scale) ([5]; Rate 250 g/ha): 55
Plant response rating, Wild oat [5, 18]: 60
Plant response rating, Wild oat [5, 19]: 60
Wheat (winter) plant response rating (0 to 100 scale) ([6]; Rate 250 g/ha): 50
Plant response rating, Wheat (winter) [6, 18]: 50
Plant response rating, Wheat (winter) [6, 19]: 60
Barnyardgrass plant response rating [7, 20]: 0
Barnyardgrass plant response rating [7, 21]: 0
Barnyardgrass plant response rating [7, 22]: 0
Barnyardgrass plant response rating [7, 23]: 0
Green foxtail plant response rating (0 to 100 scale) ([8]; Rate 250 g/ha): 100
Plant response rating, Green foxtail [8, 18]: 100
Plant response rating, Green foxtail [8, 19]: 100
Blackgrass plant response rating [9, 12]: 2
Blackgrass plant response rating [9, 24]: 8
Plant response rating, Blackgrass [9, 13]: 9
Blackgrass plant response rating [9, 14]: 0
Blackgrass plant response rating [9, 25]: 0
Blackgrass plant response rating [9, 16]: 2
Plant response rating (0 to 10; 0 is no effect, 10 is complete control), Blackgrass ([9]; Rate 250 g/ha, Postemergence): 2
Blackgrass plant response rating [9, 17]: 5
Plant response rating, Wheat (winter) ([10]; Rate 1000 g/ha, 0 to 100 scale where 0 is no effect and 100 is complete control): 60
Wheat (winter) plant response rating ([10]; Rate 250 g/ha, 0 to 100 scale where 0 is no effect and 100 is complete control): 50
Plant response rating, Wheat (winter) ([10]; Rate 500 g/ha, 0 to 100 scale, 0 is no effect, 100 is complete control): 55
Sugarbeets plant response rating [11, 12]: 0
Sugarbeets plant response rating [11, 24]: 4
Plant response rating, Sugarbeets [11, 13]: 8
Sugarbeets plant response rating [11, 14]: 0
Sugarbeets plant response rating [11, 25]: 0
Sugarbeets plant response rating [11, 16]: 0
Plant response rating (0 to 10; 0 is no effect, 10 is complete control), Sugarbeets ([11]; Rate 250 g/ha, Postemergence): 0
Sugarbeets plant response rating [11, 17]: 4

[2H]C([2H])([2H])n1c(=O)on(C(=O)N(c2ccc(F)cc2)C(C)C)c1=O [Compound 245]
B. signalgrass plant response rating [1, 12]: 3
B. signalgrass plant response rating [1, 24]: 8
Plant response rating, B. signalgrass [1, 13]: 10
B. signalgrass plant response rating [1, 14]: 1
B. signalgrass plant response rating [1, 15]: 4
B. signalgrass plant response rating [1, 16]: 7
Plant response rating (0 to 10; 0 is no effect, 10 is complete control), B. signalgrass ([1]; Rate 250 g/ha, Postemergence): 6
B. signalgrass plant response rating [1, 17]: 8
Plant response rating, I. Ryegrass [2, 26]: 20
Plant response rating, I. Ryegrass [2, 27]: 40
Plant response rating, I. Ryegrass [2, 28]: 60
Plant response rating, Blackgrass [3, 26]: 60
Plant response rating, Blackgrass [3, 27]: 60
Plant response rating, Blackgrass [3, 28]: 50
Plant response rating, Barley (winter) [4, 26]: 40
Plant response rating, Barley (winter) [4, 27]: 50
Plant response rating, Barley (winter) [4, 28]: 70
Plant response rating, Wild oat [5, 26]: 30
Plant response rating, Wild oat [5, 27]: 40
Plant response rating, Wild oat [5, 28]: 30
Plant response rating, Wheat (winter) [6, 26]: 20
Plant response rating, Wheat (winter) [6, 27]: 20
Plant response rating, Wheat (winter) [6, 28]: 50
Barnyardgrass plant response rating [7, 20]: 0
Barnyardgrass plant response rating [7, 21]: 0
Barnyardgrass plant response rating [7, 22]: 0
Barnyardgrass plant response rating [7, 23]: 0
Plant response rating, Green foxtail [8, 26]: 60
Plant response rating, Green foxtail [8, 27]: 100
Plant response rating, Green foxtail [8, 28]: 100
Blackgrass plant response rating [9, 12]: 10
Blackgrass plant response rating [9, 24]: 10
Plant response rating, Blackgrass [9, 13]: 10
Blackgrass plant response rating [9, 14]: 4
Blackgrass plant response rating [9, 25]: 7
Blackgrass plant response rating [9, 16]: 10
Plant response rating (0 to 10; 0 is no effect, 10 is complete control), Blackgrass ([9]; Rate 250 g/ha, Postemergence): 7
Blackgrass plant response rating [9, 17]: 8
Plant response rating, Wheat (winter) [10, 26]: 0
Plant response rating, Wheat (winter) ([10]; Rate 62 g/ha, 0 to 100 scale): 10
Plant response rating, Wheat (winter) ([10]; Rate 125 g/ha, 0 to 100 scale, 0 is no effect, 100 is complete control): 0
Sugarbeets plant response rating [11, 12]: 3
Sugarbeets plant response rating [11, 24]: 10
Plant response rating, Sugarbeets [11, 13]: 10
Sugarbeets plant response rating [11, 14]: 1
Sugarbeets plant response rating [11, 16]: 8
Sugarbeets plant response rating [11, 17]: 7
